# Data: US20150126467A1, “USE OF ALGINATE OLIGOMERS TO ENHANCE THE EFFECTS OF ANTIFUNGAL AGENTS” (AlgiIPharma AS, priority 2011, published 2015)
# Where two headings read alike, the source gives them in different places.
# How the values were obtained:
# Format in all cases: cell-based
# [1] = system: Cryptococcus neoformans CCUG 23451; assay: Robotic MIC assay, Cryptococcus neoformans (Example 6); conditions: for MIC: Cryptococcus neoformans, read-out: Minimum Inhibitory Concentration (MIC); for effect on MIC when OligoG is added to the medium: media: RPMI with 2% glucose
# Protocol: Cryptococcus sp. was grown at 30° C. for 96 h on YM-agar. Spores and aerial mycelium was cut out from the agar, suspended in 1 ml YM-broth and dispersed with glass beads (1 mm) in a mini bead beater for 2 min. The suspension was added glycerol to 10% and frozen at −80° C. Each batch of frozen stock culture was then characterized in separate growth experiments using Mueller-Hinton and RPMI to determine the minimum amount of inoculum giving satisfactory growth after 48 h under the conditions relevant for the MIC assay. This inoculum procedure is used in order to reduce day to day variation in bioassays.
# Robotic minimum inhibitory concentration (MIC) assay was performed as follows. OligoG CF-5/20 was dissolved in medium (Mueller-Hinton, RPMI with 2% glucose, Sabouraud or YM) to 1.25 times of the desired assay concentrations (2, 6 and 10%). […].
# (§1) Two-fold serial dilutions of antifungal agents were made in medium with different concentrations of OligoG CF-5/20, and the solutions were placed in four parallel wells in Nunc 384-well micro plates (30 μl per well in Nunc 242757 microplates). A group of 8 wells with no addition of antifungal agents for each OligoG CF-5/20 concentration was included on each micro plate as growth reference. Each well in the 384-well assay plates was added 7.5 μl of the medium innoculated with frozen stock culture of the relevant strains.
# The microplates were placed in plastic bags and incubated without shaking at 34° C. The optical density at 600 nm in the microwells was measured after certain time points from 24 h to 96 h of incubation. […]
# [2] = system: Aspergillus fumigatus CCUG 17460; assay: Robotic MIC assay, Aspergillus (Example 4); conditions: Aspergillus fumigatus, CCUG17460, 48 h, Mueller-Hinton broth, read-out: Minimum Inhibitory Concentration (MIC)
# Protocol: (§2) Aspergillus sp. was grown at 30° C. for 96 h on YM-agar. Spores and aerial mycelium was cut out from the agar, suspended in 1 ml YM-broth and dispersed with glass beads (1 mm) in a mini bead beater for 2 min. Glycerol was added to the suspension to 10% and frozen at −80° C.
# (§3) Each batch of frozen stock culture was then characterized in separate growth experiments using Mueller-Hinton broth to determine the minimum amount of inoculum giving satisfactory growth after 48 h under the conditions relevant for the MIC assay. This inoculation procedure is used in order to reduce day to day variation in bioassays.
# (§4) Robotic minimum inhibitory concentration (MIC) assay was performed as follows. OligoG CF-5/20 was dissolved in medium (Mueller-Hinton broth) to 1.25 times of the desired assay concentrations (2, 6 and 10%). […].
# as §1, with “of the MH medium inoculated” for “of the medium innoculated”, “MH medium inoculated with frozen” for “the medium innoculated with frozen”
# (§5) The microplates were placed in plastic bags and incubated without shaking at 34° C. The optical density at 600 nm in the microwells was measured after approximately 24 and 48 hours of incubation. […]
# [3] = system: Aspergillus flavus CCUG 28296; assay: Robotic MIC assay, Aspergillus (Example 4); conditions: Aspergillus flavus, CCUG23451 / CCUG28296, 48 h, Mueller-Hinton broth, read-out: Minimum Inhibitory Concentration (MIC)
# Protocol: as §2, §3, §4
# as §1, with “of the MH medium inoculated” for “of the medium innoculated”, “MH medium inoculated with frozen” for “the medium innoculated with frozen”
# as §5
# [4] = system: Aspergillus niger CCUG 18919; assay: Robotic MIC assay, Aspergillus (Example 4); conditions: Aspergillus niger, CCUG18919, 48 h, Mueller-Hinton broth, read-out: Minimum Inhibitory Concentration (MIC)
# Protocol: as §2, §3, §4
# as §1, with “of the MH medium inoculated” for “of the medium innoculated”, “MH medium inoculated with frozen” for “the medium innoculated with frozen”
# as §5
# [5] = CCUG23451, 72 h, RPMI 2% GLU, 0% OligoG, 72 hours
# [6] = CCUG23451, 72 h, RPMI 2% GLU, 2% OligoG, 72 hours
# [7] = CCUG23451, 72 h, RPMI 2% GLU, 6% OligoG, 72 hours
# [8] = CCUG23451, 72 h, Sabouraud, 0% OligoG, 72 hours
# [9] = CCUG23451, 72 h, Sabouraud, 2% OligoG, 72 hours
# [10] = CCUG23451, 72 h, Sabouraud, 6% OligoG, 72 hours
# [11] = CCUG23451, 72 h, YM, 0% OligoG, 72 hours
# [12] = CCUG23451, 72 h, YM, 2% OligoG, 72 hours
# [13] = CCUG23451, 96 h, MH, 0% OligoG, 96 hours
# [14] = CCUG23451, 96 h, MH, 2% OligoG, 96 hours
# [15] = CCUG23451, 96 h, RPMI 2% GLU, 0% OligoG, 96 hours
# [16] = CCUG23451, 96 h, RPMI 2% GLU, 2% OligoG, 96 hours
# [17] = CCUG23451, 96 h, RPMI 2% GLU, 6% OligoG, 96 hours
# [18] = CCUG23451, 96 h, RPMI 2% GLU, 10% OligoG, 96 hours
# [19] = CCUG23451, 96 h, Sabouraud, 0% OligoG, 96 hours
# [20] = CCUG23451, 96 h, Sabouraud, 2% OligoG, 96 hours
# [21] = CCUG23451, 96 h, Sabouraud, 6% OligoG, 96 hours
# [22] = CCUG23451, 96 h, YM, 0% OligoG, 96 hours
# [23] = CCUG23451, 96 h, YM, 2% OligoG, 96 hours
# [24] = A. fumigatus CCUG 17460, 0% OligoG
# [25] = A. fumigatus CCUG 17460, 2% OligoG
# [26] = A. fumigatus CCUG 17460, 6% OligoG
# [27] = A. fumigatus CCUG 17460, 10% OligoG
# [28] = A. flavus CCUG 23451, 0% OligoG
# [29] = A. flavus CCUG 23451, 2% OligoG
# [30] = A. flavus CCUG 23451, 6% OligoG
# [31] = A. flavus CCUG 23451, 10% OligoG
# [32] = A. niger CCUG 18919, 10% OligoG
SMILES,"MIC [1, 5]","MIC [1, 6]","MIC [1, 7]","MIC [1, 8]","MIC [1, 9]","MIC [1, 10]","MIC [1, 11]","MIC [1, 12]","MIC [2, 24]","MIC [2, 25]","MIC [2, 26]","MIC [2, 27]","MIC [3, 28]","MIC [3, 29]","MIC [3, 30]","MIC [3, 31]","MIC ([4]; A. niger CCUG 18919, 0% OligoG)","MIC ([4]; A. niger CCUG 18919, 2% OligoG)","MIC ([4]; A. niger CCUG 18919, 6% OligoG)","MIC [4, 32]",other results
"C[C@@H]1[C@H](O)[C@@H](C)/C=C/C=C/C=C/C=C/C=C/C=C/C=C/[C@H](O[C@@H]2O[C@H](C)[C@@H](O)[C@H](N)[C@@H]2O)C[C@@H]2O[C@](O)(C[C@@H](O)C[C@@H](O)[C@H](O)CC[C@@H](O)C[C@@H](O)CC(=O)O[C@H]1C)C[C@H](O)[C@H]2C(=O)O [Amphotericin B, amphotericin B]",> 1.5 µg/mL,1.5 µg/mL,0.75 µg/mL,0.188 µg/mL,0.0938 µg/mL,0.0117 µg/mL,> 1.5 µg/mL,1.5 µg/mL,0.75 µg/mL,0.375 µg/mL,0.375 µg/mL,0.188 µg/mL,0.75 µg/mL,0.375 µg/mL,0.375 µg/mL,0.188 µg/mL,0.188 µg/mL,0.188 µg/mL,0.0938 µg/mL,0.0469 µg/mL,"MIC [1, 13]: 1.5 µg/mL; MIC [1, 14]: 0.188 µg/mL; MIC [1, 15]: > 1.5 µg/mL; MIC [1, 16]: > 1.5 µg/mL; MIC [1, 17]: 1.5 µg/mL; MIC [1, 18]: 0.75 µg/mL; MIC [1, 19]: 0.375 µg/mL; MIC [1, 20]: 0.0938 µg/mL; MIC [1, 21]: 0.0234 µg/mL; MIC [1, 22]: > 1.5 µg/mL; MIC [1, 23]: 1.5 µg/mL; effect on MIC when OligoG is added to the medium ([1]; MH, Sabouraud, YM): reduction in MIC in all media tested"
"OC(Cn1cncn1)(Cn1cncn1)c1ccc(F)cc1F [Fluconazole, fluconazole]",2 µg/mL,1 µg/mL,0.5 µg/mL,1 µg/mL,0.5 µg/mL,0.5 µg/mL,1 µg/mL,0.5 µg/mL,> 128 µg/mL,> 128 µg/mL,128 µg/mL,128 µg/mL,64 µg/mL,64 µg/mL,32 µg/mL,32 µg/mL,> 128 µg/mL,> 128 µg/mL,> 128 µg/mL,128 µg/mL,"MIC [1, 13]: 2 µg/mL; MIC [1, 14]: 0.5 µg/mL; MIC [1, 15]: 2 µg/mL; MIC [1, 16]: 1 µg/mL; MIC [1, 17]: 1 µg/mL; MIC [1, 18]: 1 µg/mL; MIC [1, 19]: 1 µg/mL; MIC [1, 20]: 0.5 µg/mL; MIC [1, 21]: 0.5 µg/mL; MIC [1, 22]: 1 µg/mL; MIC [1, 23]: 1 µg/mL; effect on MIC when OligoG is added to the medium ([1]; MH, Sabouraud, YM): reduction in MIC in all media tested"
"Clc1ccc(COC(Cn2ccnc2)c2ccc(Cl)cc2Cl)c(Cl)c1 (centres unmarked) [Miconazole, miconazole]",4 µg/mL,2 µg/mL,0.5 µg/mL,< 0.0156 µg/mL,0.0625 µg/mL,0.00781 µg/mL,0.5 µg/mL,0.5 µg/mL,4 µg/mL,2 µg/mL,2 µg/mL,2 µg/mL,1 µg/mL,0.25 µg/mL,0.25 µg/mL,0.25 µg/mL,1 µg/mL,0.5 µg/mL,0.25 µg/mL,0.25 µg/mL,"MIC [1, 13]: 1 µg/mL; MIC [1, 14]: 0.125 µg/mL; MIC [1, 15]: 4 µg/mL; MIC [1, 16]: 2 µg/mL; MIC [1, 17]: 1 µg/mL; MIC [1, 19]: 0.0625 µg/mL; MIC [1, 20]: 0.25 µg/mL; MIC [1, 21]: 0.5 µg/mL; MIC [1, 22]: 0.5 µg/mL; MIC [1, 23]: 1 µg/mL; effect on MIC when OligoG is added to the medium ([1]; MH, Sabouraud, YM): reduction in MIC in RPMI with glucose and in MH medium"
"CN(C/C=C/C#CC(C)(C)C)Cc1cccc2ccccc12 [Terbinafine, terbinafine]",–,–,–,–,–,–,–,–,4 µg/mL,4 µg/mL,4 µg/mL,2 µg/mL,0.125 µg/mL,0.0625 µg/mL,< 0.0312 µg/mL,< 0.0312 µg/mL,0.5 µg/mL,0.25 µg/mL,0.0625 µg/mL,0.125 µg/mL,–
